From the supplement of paper PMC10307832

Tests used:
Experiment in all cases: relative viability (nuclei count vs DMSO), 5 days (fraction); higher = more cells survive
[1] = compound: N[C@@H]1CCCN(c2c(/C=C3\SC(=O)NC3=O)cccc2-c2ccccc2)C1 [AZD1208] + NC(=O)Nc1cc(-c2cccc(F)c2)sc1C(=O)N[C@H]1CCCNC1 [AZD7762] (partner 0.2 µM)
Summary of the method: (§1)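 Each reported value is a median over duplicate plates. It expresses relative viability: treated-well nuclei count divided by vehicle-well nuclei count. Lung cancer cell lines in 1536-well plates were dosed by pin tool a day after seeding, alone with one drug or with a fixed anchor-drug dose plus five library-drug doses (not always all listed) in √10 steps, and nuclei were counted after 5 days.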

[2] = compound: N[C@@H]1CCCN(c2c(/C=C3\SC(=O)NC3=O)cccc2-c2ccccc2)C1 [AZD1208] + CS(=O)(=O)N1CCN(Cc2cc3nc(-c4cccc5[nH]ncc45)nc(N4CCOCC4)c3s2)CC1 [Pictilisib] (partner 1 µM)
Summary of the method: as §1

[3] = compound: CN1CCN(CC1)C2=CC(=C(C=C2)NC3=NC(=C(S3)C(=O)C4=C(C=CC=C4Cl)Cl)N)OC [XMD14-99] + O=C(c1cc(Cc2n[nH]c(=O)c3ccccc23)ccc1F)N1CCN(C(=O)C2CC2)CC1 [Olaparib] (partner 8 µM)
Summary of the method: as §1

[4] = compound: CN1CCN(CC1)C2=CC(=C(C=C2)NC3=NC(=C(S3)C(=O)C4=C(C=CC=C4Cl)Cl)N)OC [XMD14-99] + CCNC(=O)c1noc(-c2cc(C(C)C)c(O)cc2O)c1-c1ccc(CN2CCOCC2)cc1 [Luminespib] (partner 0.01 µM)
Summary of the method: as §1

| Cell Line | relative viability ([1]; first compound 0.08 µM) | relative viability ([1]; first compound 0.253 µM) | relative viability ([1]; first compound 0.8 µM) | relative viability ([1]; first compound 2.53 µM) | relative viability ([1]; first compound 8 µM) | relative viability ([2]; first compound 0.08 µM) | relative viability ([2]; first compound 0.253 µM) | relative viability ([2]; first compound 0.8 µM) | relative viability ([2]; first compound 2.53 µM) | relative viability ([2]; first compound 8 µM) | relative viability ([3]; first compound 0.08 µM) | relative viability ([3]; first compound 0.8 µM) | relative viability ([3]; first compound 2.53 µM) | relative viability ([3]; first compound 8 µM) | relative viability ([4]; first compound 0.08 µM) | relative viability ([4]; first compound 0.8 µM) | relative viability ([4]; first compound 2.53 µM) | relative viability ([4]; first compound 8 µM) |
| --- | --- | --- | --- | --- | --- | --- | --- | --- | --- | --- | --- | --- | --- | --- | --- | --- | --- | --- |
| NCI-H1975 | 0.746 | 0.784 | 0.691 | 0.746 | 0.642 | 0.285 | 0.252 | 0.242 | 0.28 | 0.238 | 0.705 | 0.861 | 0.743 | 0.522 | 0.268 | 0.238 | 0.206 | 0.209 |
| CAL-12T | 0.621 | 0.624 | 0.621 | 0.596 | 0.905 | 0.507 | 0.523 | 0.389 | 0.355 | 0.511 | 0.674 | 0.785 | 0.671 | 0.607 | 0.387 | 0.524 | 0.358 | 0.346 |
| NCI-H1623 | – | – | – | – | – | – | – | – | – | – | – | – | – | – | 0.509 | 0.475 | 0.454 | 0.444 |
| HCC-44 | 1.01 | 1.05 | 1.03 | 1.07 | 1.08 | 0.617 | 0.463 | 0.372 | 0.46 | 0.458 | 1.08 | 1.01 | 1.01 | 0.956 | 1.01 | 0.968 | 1.07 | 0.753 |
| EKVX | 0.76 | 0.801 | 0.674 | 0.719 | 0.606 | 0.395 | 0.421 | 0.349 | 0.375 | 0.365 | 0.763 | 0.837 | 0.904 | 0.73 | 0.905 | 0.814 | 0.768 | 0.802 |
